Reference: ChEMBL document CHEMBL5370576, “Design, synthesis and biological evaluation of 2,4,6- trisubstituted triazine derivatives as new nonpeptide small-molecule SIRT5 inhibitors” (Bioorg Med Chem, 2023)
pIC50: −log10 of the molar value. Blank lines part the entries; values can stand above or below the compound they belong to. Calls of active or inactive are those of the source. The calls are words filed in the database; no cut-off is given here.

Experiments:
[1] = biological target: T1, NAD-dependent protein deacylase sirtuin-5, mitochondrial (Homo sapiens, UniProt Q9NXA8); experiment: Inhibition of human recombinant SIRT5 (34 to 269 residues) using Ac-Leu-Gly-Ser-Lys (Su)-AMC as fluorogenic substrate incubated for 2 hrs in presence of NAD+ by fluorescence based analysis
Target sequence in this assay (Q9NXA8 whole entry, the tested form may be a part): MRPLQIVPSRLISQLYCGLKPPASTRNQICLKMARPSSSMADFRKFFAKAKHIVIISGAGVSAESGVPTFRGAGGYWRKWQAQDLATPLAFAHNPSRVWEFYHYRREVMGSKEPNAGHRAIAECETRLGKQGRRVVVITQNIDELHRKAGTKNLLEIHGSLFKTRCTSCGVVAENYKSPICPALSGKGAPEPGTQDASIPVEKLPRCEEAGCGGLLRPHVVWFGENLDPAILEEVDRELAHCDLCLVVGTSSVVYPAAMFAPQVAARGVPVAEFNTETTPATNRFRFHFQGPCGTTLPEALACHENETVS

[2] = biological target: T1, NAD-dependent protein deacylase sirtuin-5, mitochondrial; experiment: Inhibition of human recombinant SIRT5 (34 to 269 residues) using Ac-Leu-Gly-Ser-Lys (Su)-AMC as fluorogenic substrate incubated for 2 hrs in presence of NAD+ at 50 uM by fluorescence based analysis
Target sequence in this assay (Q9NXA8 whole entry, the tested form may be a part): as above

[3] = biological target: T1, NAD-dependent protein deacylase sirtuin-5, mitochondrial; experiment: Inhibition of human recombinant SIRT5 (34 to 269 residues) using Ac-Leu-Gly-Ser-Lys (Su)-AMC as fluorogenic substrate incubated for 2 hrs in presence of NAD+ at 100 uM by fluorescence based analysis
Target sequence in this assay (Q9NXA8 whole entry, the tested form may be a part): as above

[4] = biological target: T1, NAD-dependent protein deacylase sirtuin-5, mitochondrial; experiment: Inhibition of human recombinant SIRT5 (34 to 269 residues) using Ac-Leu-Gly-Ser-Lys (Su)-AMC as fluorogenic substrate incubated for 2 hrs in presence of NAD+ at 200 uM by fluorescence based analysis
Target sequence in this assay (Q9NXA8 whole entry, the tested form may be a part): as above

[5] = biological target: T1, NAD-dependent protein deacylase sirtuin-5, mitochondrial; experiment: Inhibition of human recombinant SIRT5 (34 to 269 residues) using Ac-Leu-Gly-Ser-Lys (Su)-AMC as fluorogenic substrate incubated for 2 hrs in presence of NAD+ at 400 uM by fluorescence based analysis
Target sequence in this assay (Q9NXA8 whole entry, the tested form may be a part): as above

[6] = biological target: T1, NAD-dependent protein deacylase sirtuin-5, mitochondrial; experiment: Inhibition of human recombinant SIRT5 (34 to 269 residues) using Ac-Leu-Gly-Ser-Lys (Su)-AMC as fluorogenic substrate incubated for 2 hrs in presence of NAD+ at 800 uM by fluorescence based analysis
Target sequence in this assay (Q9NXA8 whole entry, the tested form may be a part): as above

[7] = biological target: T1, NAD-dependent protein deacylase sirtuin-5, mitochondrial; experiment: Competitive inhibition of human recombinant SIRT5 (34 to 269 residues) incubated for 2 hrs in presence of 11 uM of fluorogenic substrate Ac-Leu-Gly-Ser-Lys (Su)-AMC by fluorescence based analysis
[8] = biological target: T1, NAD-dependent protein deacylase sirtuin-5, mitochondrial; experiment: Competitive inhibition of human recombinant SIRT5 (34 to 269 residues) incubated for 2 hrs in presence of 33 uM of fluorogenic substrate Ac-Leu-Gly-Ser-Lys (Su)-AMC by fluorescence based analysis
[9] = biological target: T1, NAD-dependent protein deacylase sirtuin-5, mitochondrial; experiment: Competitive inhibition of human recombinant SIRT5 (34 to 269 residues) incubated for 2 hrs in presence of 100 uM of fluorogenic substrate Ac-Leu-Gly-Ser-Lys (Su)-AMC by fluorescence based analysis
[10] = biological target: T1, NAD-dependent protein deacylase sirtuin-5, mitochondrial; experiment: Competitive inhibition of human recombinant SIRT5 (34 to 269 residues) incubated for 2 hrs in presence of 300 uM of fluorogenic substrate Ac-Leu-Gly-Ser-Lys (Su)-AMC by fluorescence based analysis
[11] = biological target: T2, NAD-dependent protein deacetylase sirtuin-1 (Homo sapiens, UniProt Q96EB6); experiment: Inhibition of recombinant SIRT1 (unknown origin) using Ac-Arg-Leu-Ile-Lys-(Ac) AMC as substrate in presence of NAD+
T2 sequence (Q96EB6 whole entry): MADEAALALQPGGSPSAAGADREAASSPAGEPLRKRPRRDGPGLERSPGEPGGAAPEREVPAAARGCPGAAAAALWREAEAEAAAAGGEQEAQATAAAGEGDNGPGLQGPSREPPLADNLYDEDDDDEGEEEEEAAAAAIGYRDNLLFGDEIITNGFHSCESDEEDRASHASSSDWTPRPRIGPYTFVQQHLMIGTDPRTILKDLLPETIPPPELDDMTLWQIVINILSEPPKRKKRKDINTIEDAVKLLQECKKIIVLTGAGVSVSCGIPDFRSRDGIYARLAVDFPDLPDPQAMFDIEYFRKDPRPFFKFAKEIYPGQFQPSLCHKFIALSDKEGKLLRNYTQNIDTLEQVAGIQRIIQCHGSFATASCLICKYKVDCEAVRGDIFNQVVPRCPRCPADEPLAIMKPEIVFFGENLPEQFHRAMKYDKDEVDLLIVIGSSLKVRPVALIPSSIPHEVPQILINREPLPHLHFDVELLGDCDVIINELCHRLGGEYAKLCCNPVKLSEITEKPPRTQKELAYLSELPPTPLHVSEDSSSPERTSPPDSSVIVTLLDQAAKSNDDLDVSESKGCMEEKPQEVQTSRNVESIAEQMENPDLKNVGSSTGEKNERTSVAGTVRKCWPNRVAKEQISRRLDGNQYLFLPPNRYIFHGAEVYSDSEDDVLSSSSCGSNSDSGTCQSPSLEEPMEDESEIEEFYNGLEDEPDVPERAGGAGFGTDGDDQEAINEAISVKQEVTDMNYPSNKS

[12] = biological target: T3, NAD-dependent protein deacetylase sirtuin-2 (Homo sapiens, UniProt Q8IXJ6); experiment: Inhibition of human recombinant SIRT2 using Ac-Glu-Thr-Asp-Lys (Dec)-AM as substrate in presence of NAD+
T3 sequence (Q8IXJ6 whole entry): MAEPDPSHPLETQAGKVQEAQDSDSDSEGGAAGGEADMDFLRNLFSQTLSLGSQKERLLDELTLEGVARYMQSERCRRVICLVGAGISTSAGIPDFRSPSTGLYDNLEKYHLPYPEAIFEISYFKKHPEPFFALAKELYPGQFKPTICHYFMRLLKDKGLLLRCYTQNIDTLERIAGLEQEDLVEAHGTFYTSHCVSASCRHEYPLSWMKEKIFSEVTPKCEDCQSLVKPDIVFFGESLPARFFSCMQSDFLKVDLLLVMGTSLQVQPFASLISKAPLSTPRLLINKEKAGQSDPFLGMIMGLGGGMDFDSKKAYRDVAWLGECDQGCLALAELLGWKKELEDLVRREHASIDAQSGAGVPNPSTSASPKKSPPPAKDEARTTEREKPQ

[13] = biological target: T1, NAD-dependent protein deacylase sirtuin-5, mitochondrial; experiment: Competitive inhibition of human recombinant SIRT5 (34 to 269 residues) using Ac-Leu-GlySer-Lys (Su)-AMC as substrate at 0 to 50 uM by Lineweaver-Burk plot analysis; conditions: dose 0-50 µM
Target sequence in this assay (Q9NXA8 37-310 limits assumed): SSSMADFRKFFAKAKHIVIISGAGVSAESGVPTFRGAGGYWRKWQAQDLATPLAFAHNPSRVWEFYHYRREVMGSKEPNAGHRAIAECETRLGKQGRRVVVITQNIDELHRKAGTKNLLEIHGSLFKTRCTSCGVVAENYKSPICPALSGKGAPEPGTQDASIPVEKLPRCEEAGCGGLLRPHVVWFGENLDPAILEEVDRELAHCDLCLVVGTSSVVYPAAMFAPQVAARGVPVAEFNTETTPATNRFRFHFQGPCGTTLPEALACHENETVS

[14] = biological target: T1, NAD-dependent protein deacylase sirtuin-5, mitochondrial; experiment: Binding affinity to human recombinant SIRT5 (34 to 269 residues) assessed as thermal stabilization by measuring change in melting temperature at 50 uM and measured after 10 mins by SYPRO orange dye based thermal shift assay
Target sequence in this assay (Q9NXA8 37-310 limits assumed): as above

[15] = biological target: T1, NAD-dependent protein deacylase sirtuin-5, mitochondrial; experiment: Binding affinity to human recombinant SIRT5 (34 to 269 residues) assessed as thermal stabilization by measuring change in melting temperature at 100 uM and measured after 10 mins by SYPRO orange dye based thermal shift assay
Target sequence in this assay (Q9NXA8 37-310 limits assumed): as above

[16] = biological target: T1, NAD-dependent protein deacylase sirtuin-5, mitochondrial; experiment: Binding affinity to human recombinant SIRT5 (34 to 269 residues) assessed as thermal stabilization by measuring melting temperature at 50 uM and measured after 10 mins by SYPRO orange dye based thermal shift assay
Target sequence in this assay (Q9NXA8 37-310 limits assumed): as above

[17] = biological target: T1, NAD-dependent protein deacylase sirtuin-5, mitochondrial; experiment: Binding affinity to human recombinant SIRT5 (34 to 269 residues) assessed as thermal stabilization by measuring melting temperature at 100 uM and measured after 10 mins by SYPRO orange dye based thermal shift assay
Target sequence in this assay (Q9NXA8 37-310 limits assumed): as above

pIC50 [1]: 5.27
pIC50 [2]: 5.64
pIC50 [3]: 5.47
pIC50 [4]: 5.33
pIC50 [5]: 5.39
pIC50 [6]: 5.17
pIC50 [7]: 5.49
pIC50 [8]: 5.23
pIC50 [9]: 4.85
pIC50 [10]: 4.53
pIC50 [11]: 4.66
pIC50 [12]: 3.87
Structure (SMILES): O=C(O)CCNC(=S)NCCCNc1nc(Nc2ccccc2)nc(Nc2ccccc2Cl)n1

pIC50 [1]: 4.60
Structure (SMILES): O=C(O)CCNC(=S)NCCCNc1nc(Nc2ccccc2Cl)nc(NC2CCC2)n1

pIC50 [1]: 4.89
Structure (SMILES): O=C(O)CCNC(=S)NCCCNc1nc(Nc2ccccc2Cl)nc(N2CCCC2c2ccccc2)n1 (stereo unspecified)

pIC50 [1]: 5.16
Structure (SMILES): O=C(O)CCNC(=S)NCCCNc1nc(NCCc2ccccc2)nc(Nc2ccccc2Cl)n1

pIC50 [1]: 4.84
Structure (SMILES): O=C(O)CCNC(=S)NCCCNc1nc(NCc2ccccc2)nc(Nc2ccccc2Cl)n1

pIC50 [1]: 4.30
Structure (SMILES): Cc1c(Br)cccc1Nc1nc(NCCCNC(=S)NCCC(=O)O)nc(Nc2ccccc2Cl)n1

pIC50 [1]: 4.71
Structure (SMILES): O=C(O)CCNC(=S)NCCCNc1nc(Nc2ccccc2Cl)nc(NC2CCCC2)n1

pIC50 [1]: 4.57
Structure (SMILES): CC(CCc1ccccc1)Nc1nc(NCCCNC(=S)NCCC(=O)O)nc(Nc2ccccc2Cl)n1 (stereo unspecified)

pIC50 [1]: 5.39
pIC50 [2]: 5.32
pIC50 [3]: 5.32
pIC50 [4]: 5.49
pIC50 [5]: 5.46
pIC50 [6]: 5.33
pIC50 [7]: 5.10
pIC50 [8]: 4.84
pIC50 [9]: 4.53
pIC50 [10]: 4.37
inhibition [13]: Active
ΔTm [14]: 2.91 °C
ΔTm [15]: 3.29 °C
Tm [16]: 69.4 °C
Tm [17]: 69.7 °C
pIC50 [11]: 4.02
pIC50 [12]: 3.96
Structure (SMILES): COc1cc(Nc2nc(NCCCNC(=S)NCCC(=O)O)nc(Nc3ccccc3Cl)n2)cc(OC)c1

pIC50 [1]: 5.03
Structure (SMILES): CC[C@H](Nc1nc(NCCCNC(=S)NCCC(=O)O)nc(Nc2ccccc2Cl)n1)c1ccccc1

pIC50 [1]: 4.74
Structure (SMILES): O=C(O)CCNC(=S)NCCCNc1nc(Nc2ccccc2Cl)nc(NC2CC2)n1

pIC50 [1]: 4.67
Structure (SMILES): O=C(O)CCNC(=S)NCCCNc1nc(Nc2cc(F)cc(F)c2)nc(Nc2ccccc2Cl)n1

pIC50 [1]: 4.67
Structure (SMILES): CC(C)(C)OC(=O)[C@H](Nc1nc(NCCCNC(=S)NCCC(=O)O)nc(Nc2ccccc2Cl)n1)c1ccccc1

pIC50 [1]: 5.21
Structure (SMILES): Cc1cccc(Nc2nc(NCCCNC(=S)NCCC(=O)O)nc(Nc3ccccc3Cl)n2)c1Br
